Data on two compounds can be found in BindingDB's records for doi:10.1016/j.bmcl.2009.10.011 (AMRI, 2009).

The test deals with Cyclin-A1/Cyclin-A2/Cyclin-dependent kinase 2 (Homo sapiens, UniProt P24941). Nature of the test: Inhibition of recombinant Cdk2/cyclinA.

Regarding `Cc1csc(-c2ccc(CNc3nc(N[C@H]4CC[C@H](N)CC4)nc4c3ncn4C(C)C)s2)n1`, the IC50 (in general, the concentration needed to halve the response being measured) was found to be 0.1 nM. Consider `CC(C)n1cnc2c(NCc3ccc(-c4cccs4)nc3)nc(N[C@H]3CC[C@H](N)CC3)nc21`, for which the IC50 was determined as 0.9 nM.
